#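 Assay format: 96-well plates, 48-hour exposure. Here, GI50 denotes the concentration required for 50% inhibition of growth. TGI denotes the concentration required for complete inhibition of growth.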
# Assays:
# Experiment in all cases: DTP human tumour cell line panel, 48 h
# SW-620 colon = test system: SW-620 colon
# CAKI-1 renal = test system: CAKI-1 renal
# SK-MEL-2 melanoma = test system: SK-MEL-2 melanoma
# HCT-15 colon = test system: HCT-15 colon
# KM12 colon = test system: KM12 colon
# K-562 leukemia = test system: K-562 leukemia
# UO-31 renal = test system: UO-31 renal
# NCI-H23 lung = test system: NCI-H23 lung
# SN12C renal = test system: SN12C renal
# OVCAR-5 ovarian = test system: OVCAR-5 ovarian
# MOLT-4 leukemia = test system: MOLT-4 leukemia
# HOP-92 NSCLC = test system: HOP-92 NSCLC
# CCRF-CEM leukemia = test system: CCRF-CEM leukemia
# PC-3 prostate = test system: PC-3 prostate
# RPMI-8226 leukemia = test system: RPMI-8226 leukemia
# HCC-2998 colon = test system: HCC-2998 colon
# HCT-116 colon = test system: HCT-116 colon
# OVCAR-3 ovarian = test system: OVCAR-3 ovarian
# A498 renal = test system: A498 renal
# EKVX NSCLC = test system: EKVX NSCLC
# ACHN renal = test system: ACHN renal
# OVCAR-8 ovarian = test system: OVCAR-8 ovarian
# SK-MEL-28 melanoma = test system: SK-MEL-28 melanoma
# MDA-MB-435 = test system: MDA-MB-435
# A549 NSCLC = test system: A549 NSCLC
# OVCAR-4 ovarian = test system: OVCAR-4 ovarian
# MALME-3M melanoma = test system: MALME-3M melanoma
# SF-295 CNS = test system: SF-295 CNS
# MCF7 breast = test system: MCF7 breast
# HS 578T breast = test system: HS 578T breast
# BT-549 breast = test system: BT-549 breast
# IGROV1 ovarian = test system: IGROV1 ovarian
# HL-60(TB) leukemia = test system: HL-60(TB) leukemia
# LOX IMVI melanoma = test system: LOX IMVI melanoma
# NCI-H226 lung = test system: NCI-H226 lung
# MDA-MB-231 breast = test system: MDA-MB-231 breast
# SNB-75 CNS = test system: SNB-75 CNS
# HOP-62 NSCLC = test system: HOP-62 NSCLC
# DU-145 prostate = test system: DU-145 prostate
# NCI-H460 lung = test system: NCI-H460 lung
# SF-268 CNS = test system: SF-268 CNS
# U251 CNS = test system: U251 CNS
# SK-MEL-5 melanoma = test system: SK-MEL-5 melanoma
# T-47D breast = test system: T-47D breast
# HT29 colon = test system: HT29 colon
# SF-539 CNS = test system: SF-539 CNS
# M14 melanoma = test system: M14 melanoma
# NCI-H522 lung = test system: NCI-H522 lung
# COLO 205 colon = test system: COLO 205 colon
# SK-OV-3 ovarian = test system: SK-OV-3 ovarian
# SNB-19 CNS = test system: SNB-19 CNS
# UACC-62 melanoma = test system: UACC-62 melanoma
# TK-10 renal = test system: TK-10 renal
# NCI/ADR-RES ovarian = test system: NCI/ADR-RES ovarian
# RXF 393 renal = test system: RXF 393 renal
# 786-0 renal = test system: 786-0 renal
# UACC-257 melanoma = test system: UACC-257 melanoma
# SR leukemia = test system: SR leukemia
smiles,measurement,setting,value
CCCCC(CCCCCC(CCCC)C1NC(C)Cc2cc(OC)c(OC)cc21)C1NC(C)Cc2cc(OC)c(OC)cc21 (centres undefined),GI50,SW-620 colon,819 nM
same,TGI,SW-620 colon,2200 nM
same,GI50,CAKI-1 renal,1720 nM
same,TGI,CAKI-1 renal,3710 nM
same,GI50,SK-MEL-2 melanoma,2250 nM
same,TGI,SK-MEL-2 melanoma,3880 nM
same,GI50,HCT-15 colon,1310 nM
same,TGI,HCT-15 colon,2760 nM
same,GI50,KM12 colon,1570 nM
same,TGI,KM12 colon,3060 nM
same,GI50,K-562 leukemia,328 nM
same,TGI,K-562 leukemia,1180 nM
same,GI50,UO-31 renal,1670 nM
same,TGI,UO-31 renal,3730 nM
same,GI50,NCI-H23 lung,1670 nM
same,TGI,NCI-H23 lung,3200 nM
same,GI50,SN12C renal,1630 nM
same,TGI,SN12C renal,3040 nM
same,GI50,OVCAR-5 ovarian,1820 nM
same,TGI,OVCAR-5 ovarian,3250 nM
same,GI50,MOLT-4 leukemia,1960 nM
same,TGI,MOLT-4 leukemia,4220 nM
same,GI50,HOP-92 NSCLC,1060 nM
same,TGI,HOP-92 NSCLC,2580 nM
same,GI50,CCRF-CEM leukemia,2150 nM
same,TGI,CCRF-CEM leukemia,4660 nM
same,GI50,PC-3 prostate,1770 nM
same,TGI,PC-3 prostate,3510 nM
same,GI50,RPMI-8226 leukemia,1990 nM
same,TGI,RPMI-8226 leukemia,4430 nM
same,GI50,HCC-2998 colon,250 nM
same,TGI,HCC-2998 colon,742 nM
same,GI50,HCT-116 colon,1490 nM
same,TGI,HCT-116 colon,2960 nM
same,GI50,OVCAR-3 ovarian,1830 nM
same,TGI,OVCAR-3 ovarian,3270 nM
same,GI50,A498 renal,1410 nM
same,TGI,A498 renal,2730 nM
same,GI50,EKVX NSCLC,1710 nM
same,TGI,EKVX NSCLC,3610 nM
same,GI50,ACHN renal,1760 nM
same,TGI,ACHN renal,3210 nM
same,GI50,OVCAR-8 ovarian,1730 nM
same,TGI,OVCAR-8 ovarian,3290 nM
same,GI50,SK-MEL-28 melanoma,1600 nM
same,TGI,SK-MEL-28 melanoma,2950 nM
same,GI50,MDA-MB-435,1760 nM
same,TGI,MDA-MB-435,4190 nM
same,GI50,A549 NSCLC,1570 nM
same,TGI,A549 NSCLC,3020 nM
same,GI50,OVCAR-4 ovarian,1450 nM
same,TGI,OVCAR-4 ovarian,2760 nM
same,GI50,MALME-3M melanoma,1900 nM
same,TGI,MALME-3M melanoma,3940 nM
same,GI50,SF-295 CNS,1830 nM
same,TGI,SF-295 CNS,3790 nM
same,GI50,MCF7 breast,1190 nM
same,TGI,MCF7 breast,2520 nM
same,GI50,HS 578T breast,1430 nM
same,TGI,HS 578T breast,3600 nM
same,GI50,BT-549 breast,1790 nM
same,TGI,BT-549 breast,3260 nM
same,GI50,IGROV1 ovarian,1940 nM
same,TGI,IGROV1 ovarian,4260 nM
same,GI50,HL-60(TB) leukemia,1840 nM
same,TGI,HL-60(TB) leukemia,3790 nM
same,GI50,LOX IMVI melanoma,1320 nM
same,TGI,LOX IMVI melanoma,2680 nM
same,GI50,NCI-H226 lung,1530 nM
same,TGI,NCI-H226 lung,3010 nM
same,GI50,MDA-MB-231 breast,1280 nM
same,TGI,MDA-MB-231 breast,2600 nM
same,GI50,SNB-75 CNS,1280 nM
same,TGI,SNB-75 CNS,2570 nM
same,GI50,HOP-62 NSCLC,1470 nM
same,TGI,HOP-62 NSCLC,2880 nM
same,GI50,DU-145 prostate,1800 nM
same,TGI,DU-145 prostate,3230 nM
same,GI50,NCI-H460 lung,1450 nM
same,TGI,NCI-H460 lung,2970 nM
same,GI50,SF-268 CNS,1640 nM
same,TGI,SF-268 CNS,3080 nM
same,GI50,U251 CNS,1290 nM
same,TGI,U251 CNS,2630 nM
same,GI50,SK-MEL-5 melanoma,1520 nM
same,TGI,SK-MEL-5 melanoma,2850 nM
same,GI50,T-47D breast,1600 nM
same,TGI,T-47D breast,3110 nM
same,GI50,HT29 colon,340 nM
same,TGI,HT29 colon,1190 nM
same,GI50,SF-539 CNS,1760 nM
same,TGI,SF-539 CNS,3210 nM
same,GI50,M14 melanoma,1790 nM
same,TGI,M14 melanoma,3390 nM
same,GI50,NCI-H522 lung,1700 nM
same,TGI,NCI-H522 lung,3250 nM
same,GI50,COLO 205 colon,294 nM
same,TGI,COLO 205 colon,842 nM
same,GI50,SK-OV-3 ovarian,1570 nM
same,TGI,SK-OV-3 ovarian,2910 nM
same,GI50,SNB-19 CNS,1700 nM
same,TGI,SNB-19 CNS,3150 nM
same,GI50,UACC-62 melanoma,1670 nM
same,TGI,UACC-62 melanoma,3050 nM
same,GI50,TK-10 renal,1750 nM
same,TGI,TK-10 renal,3220 nM
same,GI50,NCI/ADR-RES ovarian,1610 nM
same,TGI,NCI/ADR-RES ovarian,3070 nM
same,GI50,RXF 393 renal,1200 nM
same,TGI,RXF 393 renal,2480 nM
same,GI50,786-0 renal,1690 nM
same,TGI,786-0 renal,3150 nM
same,GI50,UACC-257 melanoma,1710 nM
same,TGI,UACC-257 melanoma,3220 nM
Cc1ncc([N+](=O)[O-])n1CCn1ccnc1[N+](=O)[O-],TGI,SW-620 colon,> 100000 nM
same,TGI,SK-MEL-2 melanoma,> 100000 nM
same,TGI,HCT-15 colon,> 100000 nM
same,TGI,KM12 colon,> 100000 nM
same,TGI,K-562 leukemia,> 100000 nM
same,TGI,NCI-H23 lung,> 100000 nM
same,TGI,SN12C renal,> 100000 nM
same,TGI,OVCAR-5 ovarian,> 100000 nM
same,TGI,MOLT-4 leukemia,> 100000 nM
same,TGI,CCRF-CEM leukemia,> 100000 nM
same,TGI,PC-3 prostate,> 100000 nM
same,TGI,RPMI-8226 leukemia,> 100000 nM
same,TGI,HCC-2998 colon,> 100000 nM
same,TGI,SR leukemia,> 100000 nM
same,TGI,HCT-116 colon,> 100000 nM
same,TGI,OVCAR-3 ovarian,> 100000 nM
same,TGI,A498 renal,> 100000 nM
same,TGI,EKVX NSCLC,> 100000 nM
same,TGI,ACHN renal,> 100000 nM
same,TGI,OVCAR-8 ovarian,> 100000 nM
same,TGI,SK-MEL-28 melanoma,> 100000 nM
same,TGI,A549 NSCLC,> 100000 nM
same,TGI,MALME-3M melanoma,> 100000 nM
same,TGI,SF-295 CNS,> 100000 nM
same,TGI,MCF7 breast,> 100000 nM
same,TGI,HS 578T breast,> 100000 nM
same,TGI,HL-60(TB) leukemia,> 100000 nM
same,TGI,NCI-H226 lung,> 100000 nM
same,TGI,SNB-75 CNS,> 100000 nM
same,TGI,HOP-62 NSCLC,> 100000 nM
same,TGI,NCI-H460 lung,> 100000 nM
same,TGI,SF-268 CNS,> 100000 nM
same,TGI,U251 CNS,> 100000 nM
same,TGI,SK-MEL-5 melanoma,> 100000 nM
same,TGI,HT29 colon,> 100000 nM
same,TGI,SF-539 CNS,> 100000 nM
same,TGI,NCI-H522 lung,> 100000 nM
same,TGI,TK-10 renal,29000 nM
same,TGI,786-0 renal,> 100000 nM
same,TGI,UACC-257 melanoma,> 100000 nM

# — PubChem BioAssay (NCI)
